Results reported in publication PMC8903829 (eLife, 2022).
pIC50: −log10 of the molar value. Entries after “also recorded” stand apart in the source; their conditions may differ.

How the values were obtained:
[1] = biological target: T1, hNaV1.6 I1327V (Homo sapiens, UniProt Q9UQD0, I1327V); assay: Automated patch-clamp, patient-identified variant in Expi293F cells; assay type: cell-based
T1 construct: expression vector containing the full-length cDNA coding for specific human and mouse sodium channel α-subunit; expressed in transfected cells; host or cells: Expi293F (transient, tetracycline-induced, pcDNA4/TO)
Protocol: (§1) For studies of mutant channels, cDNA plasmids in pcDNA4/TO Mammalian Expression Vector were transiently transfected into Expi293F cells stably expressing human FHF2b and human SCN1B subunit (polyclonal) background using ExpiFectamine 293 Transfection Kits (Gibco,Thermo Fisher Scientific CAT #: A14524). Induction was achieved using Tetracycline (Sigma Aldrich). Transfected cells were used in automated patch-clamp experiments 24 hours postinduction.
(§2) Inorm(CPD)=(ICPD−Icontrol)/(ITTX−Icontrol).

[2] = biological target: T2, hNaV1.6 N1768D (Homo sapiens, UniProt Q9UQD0, N1768D); assay: as above; assay type: cell-based
T2 construct: expression vector containing the full-length cDNA coding for specific human and mouse sodium channel α-subunit; expressed in transfected cells; host or cells: Expi293F (transient, tetracycline-induced, pcDNA4/TO)
Protocol: as §1, §2

[3] = biological target: T3, hNaV1.6 R1617Q (Homo sapiens, UniProt Q9UQD0, R1617Q); assay: as above; assay type: cell-based
T3 construct: expression vector containing the full-length cDNA coding for specific human and mouse sodium channel α-subunit; expressed in transfected cells; host or cells: Expi293F (transient, tetracycline-induced, pcDNA4/TO)
Protocol: as §1, §2

[4] = biological target: T4, hNaV1.6 R1872W (Homo sapiens, UniProt Q9UQD0, R1872W); assay: as above; assay type: cell-based
T4 construct: expression vector containing the full-length cDNA coding for specific human and mouse sodium channel α-subunit; expressed in transfected cells; host or cells: Expi293F (transient, tetracycline-induced, pcDNA4/TO)
Protocol: as §1, §2

[5] = biological target: T5, hNaV1.6 R850Q (Homo sapiens, UniProt Q9UQD0, R850Q); assay: as above; assay type: cell-based
T5 construct: expression vector containing the full-length cDNA coding for specific human and mouse sodium channel α-subunit; expressed in transfected cells; host or cells: Expi293F (transient, tetracycline-induced, pcDNA4/TO)
Protocol: as §1, §2

[6] = biological target: T6, hNaV1.6 T767I (Homo sapiens, UniProt Q9UQD0, T767I); assay: as above; assay type: cell-based
T6 construct: expression vector containing the full-length cDNA coding for specific human and mouse sodium channel α-subunit; expressed in transfected cells; host or cells: Expi293F (transient, tetracycline-induced, pcDNA4/TO)
Protocol: as §1, §2

[7] = tested on: fast spiking interneurons; assay: Current-clamp recording in brain slices, action-potential firing; assay type: cell-based, mouse; conditions: 0.25 µM NBI-921352
Protocol: Parasagittal cortical brain slices were prepared from> P21 mice using standard procedures (adapted from Tai et al., PNAS 2014). Briefly, the mouse was deeply anaesthetized with isoflurane and decapitated. The brain was removed and placed into chilled artificial cerebrospinal fluid (aCSF) solution containing (in mM): 125 NaCl, 25 NaHCO3, 2.5 KCl, 1.25 NaH2PO4, 2 CaCl2, 2 MgCl2, 10 d-glucose, pH 7.3, osmolarity adjusted to ~306 mOsm using sucrose. All solutions were saturated with 95% O2 and 5% CO2 constantly perfused with 95% O2/5% CO2. Slices with a thickness of 400 µm were prepared using a vibratome (Ted Pella, Inc). Following sectioning, the slices were placed in a holding chamber and incubated in a water bath at 34 °C for 15 min. The brain slices were removed from the water bath and held at room temperature for 60 min prior to recording.
All experiments involving rodent subjects were performed in accordance with the guidelines of the Canadian Council on Animal Care (CCAC). Following a 60-min incubation at room temperature, a brain slice was selected and placed on the stage of an upright microscope (SliceScope Pro 2000, Scientifica). The slice was constantly perfused with room temperature aCSF, containing 0.1% DMSO as a vehicle control, and oxygenated with 95% O2/5% CO2.The slice was visualized using brightfield microscopy, and a healthy neuron was selected from neocortical layer 5. […] Stimulation was applied in current-clamp mode, and consisted of a series of 1000ms square pulses, beginning at –20 pA and increasing by +20 pA increments (3000ms between pulses).
The slice was incubated in circulating compound for 10 min before repeating the series of square pulse stimulations. Working stock solutions were prepared in DMSO at a concentration of 20 mM.
All data analysis was done offline using ClampFit 10.7 (Molecular Devices). Data are presented as a mean ± SEM. For each sweep, the number of evoked APs was counted, and plotted as a function of current injection (beginning with –20 pA). […] Statistical significance was assessed using paired, two-way, student’s t-test applied at each current injection level with significance considered p < 0.05.

T6 sequence (Q9UQD0 whole entry T767I): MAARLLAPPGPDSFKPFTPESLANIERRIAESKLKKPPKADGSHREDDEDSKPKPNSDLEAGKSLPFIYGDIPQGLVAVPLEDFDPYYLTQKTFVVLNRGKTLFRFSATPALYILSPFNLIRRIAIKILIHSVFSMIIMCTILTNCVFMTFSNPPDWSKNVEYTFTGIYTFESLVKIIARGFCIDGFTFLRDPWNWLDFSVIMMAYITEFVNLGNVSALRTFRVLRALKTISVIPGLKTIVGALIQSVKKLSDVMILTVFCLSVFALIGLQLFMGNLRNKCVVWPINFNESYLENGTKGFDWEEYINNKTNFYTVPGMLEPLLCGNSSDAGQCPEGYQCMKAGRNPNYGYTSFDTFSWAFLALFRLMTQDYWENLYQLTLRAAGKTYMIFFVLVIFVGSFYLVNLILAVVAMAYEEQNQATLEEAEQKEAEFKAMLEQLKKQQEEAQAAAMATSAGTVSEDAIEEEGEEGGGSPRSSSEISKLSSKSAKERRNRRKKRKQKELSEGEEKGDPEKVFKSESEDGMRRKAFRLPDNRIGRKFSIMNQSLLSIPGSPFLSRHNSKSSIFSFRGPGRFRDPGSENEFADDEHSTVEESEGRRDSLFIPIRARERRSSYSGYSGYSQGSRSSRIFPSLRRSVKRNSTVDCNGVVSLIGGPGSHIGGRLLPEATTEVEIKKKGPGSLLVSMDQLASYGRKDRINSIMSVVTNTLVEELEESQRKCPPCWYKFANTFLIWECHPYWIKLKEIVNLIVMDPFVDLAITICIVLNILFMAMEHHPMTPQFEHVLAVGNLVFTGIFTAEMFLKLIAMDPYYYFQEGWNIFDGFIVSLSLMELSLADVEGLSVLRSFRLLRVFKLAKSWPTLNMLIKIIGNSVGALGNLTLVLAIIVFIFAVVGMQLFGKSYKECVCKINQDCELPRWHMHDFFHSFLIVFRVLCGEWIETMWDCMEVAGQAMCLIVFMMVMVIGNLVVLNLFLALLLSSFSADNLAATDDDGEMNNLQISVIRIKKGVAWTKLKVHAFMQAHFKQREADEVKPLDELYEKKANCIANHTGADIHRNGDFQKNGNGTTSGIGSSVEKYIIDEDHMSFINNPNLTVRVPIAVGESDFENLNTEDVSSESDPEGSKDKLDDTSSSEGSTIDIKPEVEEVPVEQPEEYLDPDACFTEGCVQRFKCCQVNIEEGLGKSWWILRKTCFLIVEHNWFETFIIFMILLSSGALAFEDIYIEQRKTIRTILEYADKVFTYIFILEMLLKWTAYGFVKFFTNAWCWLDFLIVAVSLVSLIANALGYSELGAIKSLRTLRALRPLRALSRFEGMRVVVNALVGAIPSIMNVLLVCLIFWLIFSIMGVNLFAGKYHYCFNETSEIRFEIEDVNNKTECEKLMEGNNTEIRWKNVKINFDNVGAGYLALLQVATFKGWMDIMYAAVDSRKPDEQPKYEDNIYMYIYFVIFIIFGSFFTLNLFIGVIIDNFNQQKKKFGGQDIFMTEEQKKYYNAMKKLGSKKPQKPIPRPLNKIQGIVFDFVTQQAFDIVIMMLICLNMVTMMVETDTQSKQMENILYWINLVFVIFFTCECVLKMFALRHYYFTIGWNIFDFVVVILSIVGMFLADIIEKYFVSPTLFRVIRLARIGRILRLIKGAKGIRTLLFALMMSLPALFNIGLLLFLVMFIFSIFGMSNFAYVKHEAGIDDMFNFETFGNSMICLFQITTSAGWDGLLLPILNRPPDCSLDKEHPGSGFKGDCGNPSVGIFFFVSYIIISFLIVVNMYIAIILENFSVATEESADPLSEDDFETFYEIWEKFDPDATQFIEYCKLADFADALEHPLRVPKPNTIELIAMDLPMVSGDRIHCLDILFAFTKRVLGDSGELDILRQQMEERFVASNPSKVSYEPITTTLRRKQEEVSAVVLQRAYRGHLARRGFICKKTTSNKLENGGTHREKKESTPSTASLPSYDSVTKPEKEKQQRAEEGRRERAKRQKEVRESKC
T3 sequence (Q9UQD0 whole entry R1617Q): as the sequence (Q9UQD0 whole entry T767I) above, with I767T, R1617Q counted along it
T1 sequence (Q9UQD0 whole entry I1327V): as the sequence (Q9UQD0 whole entry T767I) above, with I767T, I1327V counted along it
T5 sequence (Q9UQD0 whole entry R850Q): as the sequence (Q9UQD0 whole entry T767I) above, with I767T, R850Q counted along it
T2 sequence (Q9UQD0 whole entry N1768D): as the sequence (Q9UQD0 whole entry T767I) above, with I767T, N1768D counted along it
T4 sequence (Q9UQD0 whole entry R1872W): as the sequence (Q9UQD0 whole entry T767I) above, with I767T, R1872W counted along it

## Cc1cc(S(=O)(=O)Nc2cscn2)c(F)cc1N(C)[C@H]1CCN(Cc2ccccc2)C1 [NBI-921352]
[1]
  pIC50: 7.46
[1]; -5 LogM
  h1.6-I1327V 145756, Mean: 0.91
[1]; -5.47716 LogM
  h1.6-I1327V 145756, Mean: 0.88
[1]; -5.95429 LogM
  h1.6-I1327V 145756, Mean: 0.9
[1]; -6.4318 LogM
  h1.6-I1327V 145756, Mean: 0.82
[1]; -6.91009 LogM
  h1.6-I1327V 145756, Mean: 0.67
[1]; -7.38722 LogM
  h1.6-I1327V 145756, Mean: 0.56
[1]; -7.85387 LogM
  h1.6-I1327V 145756, Mean: 0.29
[1]; -8.33 LogM
  h1.6-I1327V 145756, Mean: 0.13
[2]; -5 LogM
  h1.6-N1768D 145756 norm, Mean: 0.9
[2]; -5.47716 LogM
  h1.6-N1768D 145756 norm, Mean: 0.88
[2]; -5.95429 LogM
  h1.6-N1768D 145756 norm, Mean: 0.82
[2]; -6.4318 LogM
  h1.6-N1768D 145756 norm, Mean: 0.74
[2]; -6.91009 LogM
  h1.6-N1768D 145756 norm, Mean: 0.62
[2]; -7.38722 LogM
  h1.6-N1768D 145756 norm, Mean: 0.46
[2]; -7.85387 LogM
  h1.6-N1768D 145756 norm, Mean: 0.18
[2]; -8.33 LogM
  h1.6-N1768D 145756 norm, Mean: 0.03
[3]; -5 LogM
  h1.6-R1617Q 145756, Mean: 0.85
[3]; -6 LogM
  h1.6-R1617Q 145756, Mean: 0.64
[3]; -7 LogM
  h1.6-R1617Q 145756, Mean: 0.24
[3]; -8 LogM
  h1.6-R1617Q 145756, Mean: 0.07
[4]; -5 LogM
  h1.6-R1872W 145756, Mean: 0.9
[4]; -6 LogM
  h1.6-R1872W 145756, Mean: 0.87
[4]; -7 LogM
  h1.6-R1872W 145756, Mean: 0.55
[4]; -8 LogM
  h1.6-R1872W 145756, Mean: 0.13
[5]
  pIC50: 7.68
[5]; -5 LogM
  h1.6-R850Q 145756, Mean: 0.91
[5]; -5.47716 LogM
  h1.6-R850Q 145756, Mean: 0.88
[5]; -5.95429 LogM
  h1.6-R850Q 145756, Mean: 0.86
[5]; -6.4318 LogM
  h1.6-R850Q 145756, Mean: 0.83
[5]; -6.91009 LogM
  h1.6-R850Q 145756, Mean: 0.79
[5]; -7.38722 LogM
  h1.6-R850Q 145756, Mean: 0.58
[5]; -7.85387 LogM
  h1.6-R850Q 145756, Mean: 0.43
[5]; -8.33 LogM
  h1.6-R850Q 145756, Mean: 0.13
[6]
  pIC50: 7.51
[6]; -5 LogM
  h1.6-T767I 145756, Mean: 0.91
[6]; -5.47716 LogM
  h1.6-T767I 145756, Mean: 0.92
[6]; -5.95429 LogM
  h1.6-T767I 145756, Mean: 0.86
[6]; -6.4318 LogM
  h1.6-T767I 145756, Mean: 0.86
[6]; -6.91009 LogM
  h1.6-T767I 145756, Mean: 0.75
[6]; -7.38722 LogM
  h1.6-T767I 145756, Mean: 0.58
[6]; -7.85387 LogM
  h1.6-T767I 145756, Mean: 0.19
[6]; -8.33 LogM
  h1.6-T767I 145756, Mean: 0.1
[7]
  effect on action-potential firing, fast-spiking interneurons: trend toward slightly increased firing frequency; also recorded: no significant effect
